The results in this text go back to US11299506B2, “Acylnucleoside phosphonates, prodrugs thereof and use thereof as medicament” (UNIVERSITE DE MONTPELLIER, priority 2017, dated 2022).

Read-outs that look alike come from different tables or passages of the source.

Assay [1] deals with Plasmodium falciparum (strain 3D7). As to the kind of experiment: In vitro anti-Plasmodium falciparum activity (infected erythrocytes, radioactive precursor incorporation). It is filed as cell-based. The method, then:
After 48 h of incubation in the absence (control) or in the presence of the compound to be tested, the radioactive precursor is added, and the reaction is continued for another 18 h, then stopped by freezing at −80° C. The macromolecules, including the radiolabeled nucleic acids, are collected on a filter. The incorporated radioactivity is measured with the scintillation counter after addition of scintillation cocktail. The radioactive background noise is measured based on a suspension of healthy erythrocytes (same conditions as for parasite-containing suspensions). The viability of the parasites is expressed as a (nonspecific derived) percentage of the control. […] The IC50 values thus determined are the result of at least two experiments carried out independently in duplicate. Batches A and B correspond to two different syntheses according to the same procedure and carried out in their totality by two different operators, at a six month interval.

In another assay the test system is K562 cells. The assay is described as follows: Toxicity with respect to K562 cells ([3H]-thymidine incorporation). It is filed as cell-based, human. The conditions noted are these: 3H-thymidine detection; Batch B; 24 h incubation; read-out: Activity against the K562 cells, 3H-Thymidine, Batch B IC50. On the procedure: Suspensions of human cells (8000 cells per well) are cultured in complete RPMI medium (RPMI 1640 medium, L-glutamine, penicillin/streptomycin and 10% fetal calf serum) (200 μL) either in the absence of the compound to be tested (controls), or in contact with variable concentrations of said compound.
After 24 h of incubation (or approximately one cell cycle), 0.7 μCi of [^3H]-thymidine (radiolabeled precursor of the synthesis of the nucleic acids) diluted in 30 μL of complete RPMI medium are added to each well. After 6 h of additional incubation, the thymidine incorporation reaction is stopped by freezing at −80° C. As for the determination of the in vitro anti-malarial activity, the macromolecules, including the radiolabeled nucleic acids, are collected on a filter. The incorporated radioactivity is measured with the scintillation counter after addition of scintillation cocktail.
The radioactive background noise is measured based on complete RPMI medium. The viability of the cells is expressed as a (nonspecific derived) percentage of the control. The measurements are analyzed using Excel and Prism software, and the IC50 (concentration capable of in vitro inhibition of 50% of the growth of the cells) is determined graphically.
The IC50 values thus determined are the result of at least two experiments performed independently in duplicate.

The test system of a further assay is Babesia divergens. As to the kind of experiment: In vitro anti-Babesia divergens activity (infected erythrocytes, [3H]-hypoxanthine incorporation). The note with it: 16 h contact, read-out: Activity against Babesia divergens IC50. It is filed as cell-based. The method, then:
After 16 h of incubation in the absence (control) or in the presence of the compound, the radioactive precursor is added and the reaction is continued for another 8 h and then stopped by freezing at −80° C. As for the determination of the in vitro anti-parasitic activity, the macromolecules, including the radiolabeled nucleic acids, are collected on a filter. The incorporated radioactivity is measured with the scintillation counter after addition of scintillation cocktail. The radioactive background noise is measured based on a suspension of healthy erythrocytes (same conditions as for the parasite-containing suspensions). The viability of the parasites is expressed as a (nonspecific derived) percentage of the control. […] The IC50 values thus determined are the result of at least two experiments performed independently in duplicate.

Another assay relates to Toxoplasma gondii. The assay is described as follows: In vitro anti-toxoplasmosis activity by plaque assay on HFF fibroblast monolayer. The assay is classed as cell-based. The conditions noted are these: 7 days, average of 2 values. The method, then: This test is based on the capability of Toxoplasma gondii in its intracellular form (tachyzoite) to bring about the lysis of its host cell (here a monolayer of fibroblasts) and to then infect the neighboring cells so that over time (days) a macroscopically visible hole in the monolayer of cells becomes apparent and its area can be measured. In the 24-well culturing plates, approximately 80 parasites are added to a monolayer of fibroblasts (HFF cells) for 7 days in the presence or absence of drug. The cells are then fixed with 4% paraformaldehyde, and then stained with Giemsa. The cells are visualized under the microscope, and the size of the lysis plaques is measured using the software Zen® (Zeiss). The cells are maintained in culture in complete medium (DMEM+5% fetal calf serum+glutamine+penicillin/streptomycin). The ability of the drug to inhibit the growth of Toxoplasma gondii is proportional to the decrease in the size of the lysis plaque.
The results obtained are collected in Table 4 (average of 2 values) below and in FIG. 1.

Where [2] appears, read: read-out: Activity against P. falciparum (3D7), detection 3H-Hypoxanthine, Batch B IC50.
Where [3] appears, read: Plasmodium falciparum, 3D7, Erythrocyte, 3H-ethanolamine detection, Batch A, 48 h contact, read-out: Activity against P. falciparum (3D7), detection 3H-Ethanolamine, Batch A IC50.
The mark [4] stands for this setting: Plasmodium falciparum, 3D7, Erythrocyte, 3H-hypoxanthine detection, Batch A, 48 h contact, read-out: Activity against P. falciparum (3D7), detection 3H-Hypoxanthine, Batch A IC50.
[5] abbreviates: read-out: Activity against P. falciparum (3D7), detection 3H-Ethanolamine, Batch A IC50.
Setting [6] is: read-out: Activity against P. falciparum (3D7), detection 3H-Hypoxanthine, Batch A IC50.

As for `CCN(CC)CCCC(C)Nc1ccnc2cc(Cl)ccc12` (stereo not shown) [Chloroquine, reference compound], the IC50 in assay [1] (Plasmodium falciparum, 3D7, Erythrocyte, read-out: Activity against P. falciparum (3D7), detection 3H-Ethanolamine, Batch A IC50) turned out to be 0.014 µM; in assay [1] (Plasmodium falciparum, 3D7, Erythrocyte, read-out: Activity against P. falciparum (3D7), detection 3H-Hypoxanthine, Batch A IC50), 0.0145 µM.
For `COc1nc(N)nc2c1ncn2C[C@@H](O)CCP(=O)(OCCSC(=O)c1ccccc1)OCCSC(=O)c1ccccc1` [Compound 4, 6-O-methyl-9-[(2S)-2-hydroxy-4-bis(S-benzoyl-2-thioethyl)phosphonobutyl]-2-amino Purine], the IC50 was determined as 22 µM in the assay on K562 cells and 57 µM in assay [1] (setting [2]).
`COc1nc(N)nc2c1ncn2C[C@H](O)CCP(=O)(OCCSC(=O)c1ccccc1)OCCSC(=O)c1ccccc1` [Compound 6, 6-O-methyl-9-[(2R)-2-hydroxy-4-bis(S-benzoyl-2-thioethyl)phosphonobutyl]-2-aminopurine]: the results for the IC50 (in the assay with K562 cells; in assay [1] (setting [2])) were 20 µM and 62 µM, respectively.
As for `Nc1ncnc2c1ncn2C[C@@H](O)CP(=O)(O)O` [Compound 10, N-9-[(2R)-2-hydroxy-3-phosphonopropyl] adenine], the IC50 in assay [1] (setting [3]) and in assay [1] (setting [4]) was more than 1000 µM each time.
Consider `Nc1nc2c(ncn2C[C@@H](O)CP(=O)(O)O)c(=O)[nH]1` [Compound 11, N-9-[(2R)-2-hydroxy-3-phosphonopropyl]guanine], for which the values for the IC50 in assay [1] (setting [3]) and in assay [1] (setting [4]) were more than 1000 µM and not below 1000 µM, respectively.
Regarding `Nc1ncc2ncn(CC[C@@H](O)CP(=O)(O)O)c2n1` [Compound 16], the IC50 is more than 100 µM in the assay on Babesia divergens (Babesia divergens, Erythrocyte) and 62 µM in assay [1] (setting [4]).
With `O=P(O)(O)C[C@H](O)CCn1cnc2cc(Cl)c(Cl)cc21` [Compound 18], the 50% inhibitory concentration (IC50) is 470 µM in the assay with Babesia divergens (Babesia divergens, Erythrocyte) and more than 100 µM in assay [1] (setting [4]).
In the case of `O=c1[nH]c(=O)c2ncn(CC[C@@H](O)CP(=O)(O)O)c2[nH]1` [Compound 19], the IC50 in the assay on Babesia divergens (Babesia divergens, Erythrocyte) is more than 100 µM; in assay [1] (setting [4]) it was more than 100 µM.
As to `O=c1[nH]cnc2c1ncn2CC[C@@H](O)CP(=O)(O)O` [Compound 20], the IC50 with Babesia divergens (Babesia divergens, Erythrocyte) is more than 100 µM; in assay [1] (setting [4]), more than 1000 µM.
Take `O=c1[nH]cnc2c1ncn2CC[C@H](O)CP(=O)(O)O` [Compound 21]: the IC50 is more than 100 µM in the assay with Babesia divergens (Babesia divergens, Erythrocyte) and more than 1000 µM in assay [1] (setting [4]).
For the compound `O=c1[nH]c(=O)c2ncn(CC[C@H](O)CP(=O)(O)O)c2[nH]1` [Compound 22], the IC50 in the assay on Babesia divergens (Babesia divergens, Erythrocyte) was more than 1000 µM; in assay [1] (setting [4]) it was 910 µM.
Take `N=C(N)c1ccc(OCCCCCOc2ccc(C(=N)N)cc2)cc1` [Pentamidine, reference compound]: the IC50 with Babesia divergens (Babesia divergens, Erythrocyte) came to 0.183 µM.
On to “N-9-[(2R)-2-hydroxy-3-phosphonobutyl]guanine [Compound 5]”, for which the IC50 was 0.48 µM in the assay on Babesia divergens; 10000 µM in the assay with K562 cells; 0.043 µM in assay [1] (setting [5]); 0.058 µM in assay [1] (setting [6]); 0.0775 µM in assay [1] (setting [2]). Further, the “Inhibition of the growth of T. gondii” value is 42 % of the controls in the assay with Toxoplasma gondii (Conc = 5 μM) and 100 % of the controls in the assay on Toxoplasma gondii (Conc = 50 μM).
Consider “N-9-[(2R)-2-hydroxy-3-phosphonopropyl]2,6-diamino purine [Compound 13]”, for which the IC50 in assay [1] (setting [5]) was 740 µM; in assay [1] (setting [6]), 510 µM.
For “N-9-[(2S)-2-hydroxy-3-phosphono propyl]guanine [Compound 3]”, the IC50 with Babesia divergens was 3.6 µM; in the assay with K562 cells, more than 5000 µM; in assay [1] (setting [5]), 6 µM; in assay [1] (setting [6]), 3.3 µM; in assay [1] (setting [2]), 7.05 µM. Besides, the “Inhibition of the growth of T. gondii” value is reported as 0 % of the controls in the assay on Toxoplasma gondii (Conc = 5 μM) and 18 % of the controls in the assay with Toxoplasma gondii (Conc = 50 μM).
As to “N-9-[(2S)-2-hydroxy-3-phosphono propyl]guanine [Compound 12]”, the IC50 with Babesia divergens is more than 1000 µM.
On to “N-9-[(2S)-2-hydroxy-3-phosphonopropyl]2,6-diamino purine [Compound 14]”, for which the half-inhibitory concentration (IC50) in assay [1] (setting [5]) amounted to 650 µM; in assay [1] (setting [6]) it was 595 µM.
Consider “N-9-[(2S)-2-hydroxy-3-phosphonopropyl] adenine [Compound 9]”, for which the IC50 in assay [1] (setting [5]) and in assay [1] (setting [6]) was more than 1000 µM throughout.
Consider “N-9[(2R)-2-hydroxy-4-phosphonobutyl]adenine [Compound 2]”, for which the IC50 in assay [1] (setting [5]) and in assay [1] (setting [6]) was more than 1000 µM in each case.

A word on the IC50: it is the point on the concentration scale where inhibition reaches its midpoint.
